This passage reports MIC90 results from patent US8993636B2 (Alcon, Inc., priority 1998, dated 2015).

Values after ≈ are worked out from the molar mass of the structure shown.

Common to all, as to assay: Minimum inhibitory concentration (MIC90)
Common to all, as to assay type: cell-based

The test system of test [1] is H influenzae/β-lactamase negative. As to conditions: inhibits growth of 90% of the strains. The text has this: (§1) The concentrations of the antibiotics of formula (I) in the compositions of the present invention will vary depending on the intended use of the compositions (e.g., treatment of existing infections or prevention of post-surgical infections), and the relative antimicrobial activity of the specific antibiotic selected. The antimicrobial activity of antibiotics is generally expressed as the minimum concentration required to inhibit the growth of a specified pathogen. This concentration is also referred to as the “minimum inhibitory concentration” or “MIC”. The term “MIC90” refers to the minimum concentration of antibiotic required to inhibit the growth of ninety percent (90%) of the strains of a species. The concentration of an antibiotic required to totally kill a specified bacteria is referred to as the “minimum bactericidal concentration” or “MBC”.

Test [2] deals with H. influenzae/β-lactamase positive. The note with it: Haemophilus influenzae, inhibits growth of 90% of the strains.
Excerpt: as §1

A further test concerns P. aeruginosa. As to conditions: Pseudomonas aeruginosa, inhibits growth of 90% of the strains.
Excerpt: as §1

For test [3], the system named is S. aureus/methicillin resistant. The note with it: Staphylococcus aureus, inhibits growth of 90% of the strains.
Excerpt: as §1

The test system of test [4] is S. aureus/methicillin sensitive. The note with it: Staphylococcus aureus, inhibits growth of 90% of the strains.
Excerpt: as §1

Test [5] has as its system S. aureus/quinolone resistant. The note with it: Staphylococcus aureus, inhibits growth of 90% of the strains.
Excerpt: as §1

For test [6], the system named is S. epidermidis/methicillin resistant. As to conditions: Staphylococcus epidermidis, inhibits growth of 90% of the strains.
Excerpt: as §1

The subject of test [7] is S. epidermidis/methicillin sensitive. The note with it: Staphylococcus epidermidis, inhibits growth of 90% of the strains.
Excerpt: as §1

The test system of test [8] is S. pneumoniae/penicillin resistant. The note with it: Streptococcus pneumoniae, inhibits growth of 90% of the strains.
Excerpt: as §1

The subject of test [9] is S. pneumoniae/penicillin sensitive. The note with it: Streptococcus pneumoniae, inhibits growth of 90% of the strains.
Excerpt: as §1

For `COc1c(N2C[C@@H]3CCCN[C@@H]3C2)c(F)cc2c(=O)c(C(=O)O)cn(C3CC3)c12` [Moxifloxacin], the MIC90 came out at 0.06 µg/mL (≈ 0.149 µM) in test [1]; 0.06 µg/mL (≈ 0.149 µM) in test [2]; 8 µg/mL (≈ 19.9 µM) against P. aeruginosa; 4 µg/mL (≈ 9.96 µM) in test [3]; 0.13 µg/mL (≈ 0.324 µM) in [4]; 4 µg/mL (≈ 9.96 µM) in test [5]. In addition, the MIC90 in test [6] came out at 4 µg/mL (≈ 9.96 µM); in test [7], 0.25 µg/mL (≈ 0.623 µM); in test [8], 0.25 µg/mL (≈ 0.623 µM); in test [9], 0.25 µg/mL (≈ 0.623 µM).
